Data from publication PMC6320249 (ACS chemical biology, 2015).

Legend:
p300 = target: T1, p300 (Homo sapiens, UniProt Q09472); test: Microfluidic mobility shift KAT assay, p300 with FITC-H4; assay type: biochemical
T1 sequence (Q09472 1195-1662): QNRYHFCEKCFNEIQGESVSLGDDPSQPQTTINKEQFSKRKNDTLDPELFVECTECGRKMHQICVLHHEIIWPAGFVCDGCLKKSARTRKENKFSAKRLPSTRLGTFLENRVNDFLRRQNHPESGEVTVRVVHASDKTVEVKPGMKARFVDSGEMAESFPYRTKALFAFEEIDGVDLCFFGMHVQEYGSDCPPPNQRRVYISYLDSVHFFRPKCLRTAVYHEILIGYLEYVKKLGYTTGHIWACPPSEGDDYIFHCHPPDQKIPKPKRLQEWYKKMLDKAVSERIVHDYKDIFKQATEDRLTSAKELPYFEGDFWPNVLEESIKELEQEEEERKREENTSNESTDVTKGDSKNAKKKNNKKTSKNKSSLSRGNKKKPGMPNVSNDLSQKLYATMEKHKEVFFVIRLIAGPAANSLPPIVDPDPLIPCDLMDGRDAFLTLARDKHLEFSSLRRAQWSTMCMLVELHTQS

Gcn5 [1] = target: T2, Gcn5 (Homo sapiens, UniProt Q92830); test: Microfluidic mobility shift KAT assay, Gcn5 with FITC-H3; assay type: biochemical; settings: for inhibition of Gcn5 in pilot screen: acetyl-CoA 1 μM, unicate, hydroxylamine quench; for detergent sensitivity of Gcn5 inhibition: low (0.01%) compared to high (0.05%) Triton-X
T2 sequence (Q92830 497-662): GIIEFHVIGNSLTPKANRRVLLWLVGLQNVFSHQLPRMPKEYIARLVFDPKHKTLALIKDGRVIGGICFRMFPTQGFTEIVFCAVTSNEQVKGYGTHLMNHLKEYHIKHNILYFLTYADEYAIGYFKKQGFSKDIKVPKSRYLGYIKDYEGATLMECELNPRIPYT

cell viability = test: Cell viability / toxicity; assay type: cell-based; settings: at concentrations of ~60 μM
Gcn5 [2] = target: T2, Gcn5; test: Real-time kinetic monitoring of Gcn5-catalyzed acetylation; assay type: biochemical; settings: first 25 min vs last 25 min of 100 min; uninhibited enzyme = 1
HepG2 cells = test: Effect of garcinol on acetylation in HepG2 cells; assay type: cell-based

Compound | inhibition of Gcn5 in pilot screen (Gcn5 [1]; compound 40 μM) | effect on p300 in pilot screen (in words) (p300; compound 40 μM) | time dependence value (ratio of acetylation rates at early/late intervals) (Gcn5 [2]) | detergent sensitivity of Gcn5 inhibition (Gcn5 [1]) | other results
CC(=O)N[C@@H](CCCCNC(=O)CSCCNC(=O)CCNC(=O)[C@H](O)C(C)(C)COP(=O)(O)OP(=O)(O)OC[C@H]1O[C@@H](n2cnc3c(N)ncnc32)[C@H](O)[C@@H]1OP(=O)(O)O)C(N)=O [Lys-CoA] | greater than 40% | – | – | – | inhibition of p300 in pilot screen (p300; compound 40 μM, acetyl-CoA 1 μM, unicate, hydroxylamine quench): greater than 40%; p300 versus Gcn5 selectivity in pilot screen (in words) (p300; compound 40 μM, p300 compared to Gcn5): inhibited p300 considerably more strongly than Gcn5
CCCCCCCc1ccc(CCc2cccc(O)c2C(=O)O)cc1 [MG-149] | greater than 40% | – | – | – | –
C=C(C)[C@@H](CC=C(C)C)C[C@@]12C[C@@H](CC=C(C)C)C(C)(C)[C@@](CC=C(C)C)(C(=O)C(C(=O)c3ccc(O)c(O)c3)=C1O)C2=O [garcinol] | – | Selective inhibition of p300 | > 1 | significantly greater inhibitory activity | detergent sensitivity of p300 inhibition (p300; low (0.01%) compared to high (0.05%) Triton-X): significantly greater inhibitory activity; toxicity (cell viability): toxic; effect on Gcn5 in pilot screen (in words) (Gcn5 [1]; compound 40 μM): did not manifest as a Gcn5 hit; lowest concentration with effects on acetylation (HepG2 cells): ~ 25 μM
Cc1cc2c(C(C)C)c(O)c(O)c(C=O)c2c(O)c1-c1c(C)cc2c(C(C)C)c(O)c(O)c(C=O)c2c1O [gossypol] | – | – | > 1 | detergent-sensitive inhibition | inhibition at 40 µM (Gcn5 [1]; read-out: inhibition of Gcn5 in pilot screen): > 40%
O=C1c2c(O)ccc(O)c2C(=O)c2c(NCCNCCO)ccc(NCCNCCO)c21 [mitoxantrone] | – | selective p300 activation | – | – | –
